According to ChEMBL document CHEMBL5335825, “Multi-target potential of newly designed tacrine-derived cholinesterase inhibitors: Synthesis, computational and pharmacological study” (Bioorg Med Chem, 2024):
pIC50: −log10 of the molar value. Calls of active or inactive are those of the source. No cut-off for these calls is given here.

How the values were obtained:
Acetylcholinesterase = Acetylcholinesterase (Electrophorus electricus, UniProt O42275); assay: Inhibition of electric eel AChE using acetylthiocholine iodide as substrate preincubated for 10 mins followed by substrate addition and measured every min for 10 mins by DTNB based Ellman's assay
Chain of Acetylcholinesterase (O42275 whole entry): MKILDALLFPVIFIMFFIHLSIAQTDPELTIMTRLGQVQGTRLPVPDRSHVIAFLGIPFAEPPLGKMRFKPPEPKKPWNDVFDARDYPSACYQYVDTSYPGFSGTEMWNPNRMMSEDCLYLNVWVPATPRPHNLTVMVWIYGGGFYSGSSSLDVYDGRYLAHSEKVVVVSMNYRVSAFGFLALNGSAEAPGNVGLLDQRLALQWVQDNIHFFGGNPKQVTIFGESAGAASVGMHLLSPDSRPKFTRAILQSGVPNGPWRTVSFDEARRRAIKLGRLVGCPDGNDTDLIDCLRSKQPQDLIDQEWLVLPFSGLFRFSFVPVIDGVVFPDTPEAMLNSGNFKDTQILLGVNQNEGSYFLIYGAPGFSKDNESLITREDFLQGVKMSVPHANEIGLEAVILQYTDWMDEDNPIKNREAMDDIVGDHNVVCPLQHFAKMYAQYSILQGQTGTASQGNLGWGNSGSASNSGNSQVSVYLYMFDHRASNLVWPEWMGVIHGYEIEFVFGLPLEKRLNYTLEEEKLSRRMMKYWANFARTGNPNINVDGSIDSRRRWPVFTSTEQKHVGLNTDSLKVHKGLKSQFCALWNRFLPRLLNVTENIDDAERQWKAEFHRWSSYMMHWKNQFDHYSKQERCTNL

[1] = Selectivity index, ratio of IC50 for cytotoxicity against human SH-SY5Y cells to IC50 for inhibition of equine serum BuChE
[2] = Selectivity index, ratio of IC50 for cytotoxicity against human SH-SY5Y cells to IC50 for inhibition of electric eel AChE
in vitro = settings: human, SH-SY5Y cells
Description: Cytotoxicity against human SH-SY5Y cells assessed as reduction in cell viability incubated for 24 hrs by crystal violet staining based analysis

Cholinesterase = Cholinesterase (Equus caballus, UniProt P81908); assay: Inhibition of equine serum BuChE using butyrylthiocholine iodide as substrate preincubated for 10 mins followed by substrate addition and measured every min for 10 mins by DTNB based Ellman's assay
Chain of Cholinesterase (P81908 whole entry): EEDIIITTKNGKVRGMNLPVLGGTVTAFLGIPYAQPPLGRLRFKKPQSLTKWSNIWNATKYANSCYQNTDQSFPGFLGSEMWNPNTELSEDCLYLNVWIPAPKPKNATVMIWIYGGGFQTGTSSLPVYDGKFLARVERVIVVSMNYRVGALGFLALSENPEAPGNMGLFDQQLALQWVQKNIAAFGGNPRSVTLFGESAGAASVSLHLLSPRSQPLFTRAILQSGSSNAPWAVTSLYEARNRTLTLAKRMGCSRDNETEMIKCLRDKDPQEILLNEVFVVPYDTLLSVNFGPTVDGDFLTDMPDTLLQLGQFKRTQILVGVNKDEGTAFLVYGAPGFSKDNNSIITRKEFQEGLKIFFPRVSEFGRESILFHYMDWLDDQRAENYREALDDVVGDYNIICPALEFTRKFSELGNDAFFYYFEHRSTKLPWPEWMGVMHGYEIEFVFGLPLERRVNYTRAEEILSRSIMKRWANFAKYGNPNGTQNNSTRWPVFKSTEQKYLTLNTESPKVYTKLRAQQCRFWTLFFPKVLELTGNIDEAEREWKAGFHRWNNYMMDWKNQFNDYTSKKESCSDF

[3] = biological target: Acetylcholinesterase (Electrophorus electricus) (UniProt O42275); assay: Mixed type inhibition of electric eel AChE using varying concentrations of acetylthiocholine iodide as substrate assessed as decrease in Vmax with varied Km by Lineweaver-Burk plot analysis
Chain of Acetylcholinesterase (Electrophorus electricus) (O42275 24-633 limits assumed): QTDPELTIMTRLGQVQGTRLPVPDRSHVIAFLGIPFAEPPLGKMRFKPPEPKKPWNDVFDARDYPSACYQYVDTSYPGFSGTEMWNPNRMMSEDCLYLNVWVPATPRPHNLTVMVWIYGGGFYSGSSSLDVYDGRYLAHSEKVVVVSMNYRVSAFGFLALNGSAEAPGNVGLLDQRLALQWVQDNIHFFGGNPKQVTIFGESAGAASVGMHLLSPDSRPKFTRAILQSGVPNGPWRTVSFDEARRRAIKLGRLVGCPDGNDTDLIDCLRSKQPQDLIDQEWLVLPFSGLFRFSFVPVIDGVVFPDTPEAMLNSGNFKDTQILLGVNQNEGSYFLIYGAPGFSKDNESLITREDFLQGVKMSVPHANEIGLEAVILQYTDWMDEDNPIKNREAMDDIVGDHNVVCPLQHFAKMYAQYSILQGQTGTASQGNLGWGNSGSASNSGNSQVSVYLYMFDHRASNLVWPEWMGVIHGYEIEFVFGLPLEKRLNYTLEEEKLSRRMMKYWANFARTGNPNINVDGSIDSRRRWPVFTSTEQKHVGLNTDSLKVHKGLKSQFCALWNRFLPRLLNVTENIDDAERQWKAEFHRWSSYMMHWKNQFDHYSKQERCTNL

[4] = biological target: Cholinesterase (Equus caballus) (UniProt P81908); assay: Mixed type inhibition of equine serum BuChE using varying concentrations of butyrylthiocholine iodide as substrate assessed as decrease in Vmax with varied Km by Lineweaver-Burk plot analysis
Chain of Cholinesterase (Equus caballus) (P81908 whole entry): as the sequence (P81908 whole entry) above

Structure (SMILES) | pIC50 (Acetylcholinesterase) | Ratio IC50 [1] | Ratio IC50 [2] | IC50 at 24 h (in vitro) [nM] | pIC50 (Cholinesterase) | inhibition [3] | inhibition [4]
O=C(NCCCCCNc1c2c(nc3ccccc13)CCCC2)C1CCN(C(=O)c2cccc(F)c2)CC1 | 6.86 | 789 | 417.2 | 58000 | 7.13 | – | –
O=C(NCCCCCNc1c2c(nc3ccccc13)CCCC2)C1CCN(C(=O)c2ccncc2)CC1 | 6.54 | 1635.1 | 472 | 137000 | 7.08 | – | –
COc1ccccc1C(=O)N1CCC(C(=O)NCCCCCNc2c3c(nc4ccccc24)CCCC3)CC1 | 6.64 | 2266.7 | 480.4 | 109000 | 7.32 | – | –
O=C(NCCCCCNc1c2c(nc3ccccc13)CCCC2)C1CCN(C(=O)c2cccnc2)CC1 | 6.79 | – | – | – | 7.01 | – | –
COc1ccc(C(=O)N2CCC(C(=O)NCCCCCNc3c4c(nc5ccccc35)CCCC4)CC2)cc1 | 6.65 | 605.3 | 667.9 | 149000 | 6.61 | – | –
O=C(NCCCCCNc1c2c(nc3ccccc13)CCCC2)C1CCN(C(=O)c2ccc(Cl)cc2)CC1 | 6.35 | 268.5 | 69.4 | 30700 | 6.94 | – | –
O=C(NCCCCCNc1c2c(nc3ccccc13)CCCC2)C1CCN(C(=O)c2ccccc2Cl)CC1 | 6.81 | 2247.9 | 1188.8 | 186000 | 7.08 | Active | Active
COc1cccc(C(=O)N2CCC(C(=O)NCCCCCNc3c4c(nc5ccccc35)CCCC4)CC2)c1 | 6.54 | 1546.3 | 326 | 93600 | 7.22 | – | –
O=C(NCCCCCNc1c2c(nc3ccccc13)CCCC2)C1CCN(C(=O)c2ccccc2F)CC1 | 6.62 | – | – | 192000 | 7.47 | – | –
O=C(NCCCCCNc1c2c(nc3ccccc13)CCCC2)C1CCN(C(=O)c2cccc(Cl)c2)CC1 | 6.80 | 2082.3 | 926.2 | 147000 | 7.15 | – | –
O=C(NCCCCCNc1c2c(nc3ccccc13)CCCC2)C1CCN(C(=O)c2ccc(F)cc2)CC1 | 6.43 | – | – | – | 6.81 | – | –
O=C(NCCCCCNc1c2c(nc3ccccc13)CCCC2)C1CCN(C(=O)c2ccccc2)CC1 | 6.93 | 1490.3 | 589.8 | 69300 | 7.33 | – | –
O=C(NCCCCCNc1c2c(nc3ccccc13)CCCC2)C1CCN(C(=O)c2ccccn2)CC1 | 6.34 | 347.1 | 247.1 | 112000 | 6.49 | – | –
